Experimental data taken from PMC6748385 (Toxicology and applied pharmacology, 2019).
Like-named read-outs stand apart in the source and are kept apart here.

Tests used:
Assay in all cases: ERE-luciferase transactivation, HELN-zfER cells
Format in all cases: cell-based
zfERβ1 (Esr2b) = biological target: T1, zfERβ1 (Esr2b) (Danio rerio, UniProt Q5PR29)
T1 sequence (Q5PR29 1-592): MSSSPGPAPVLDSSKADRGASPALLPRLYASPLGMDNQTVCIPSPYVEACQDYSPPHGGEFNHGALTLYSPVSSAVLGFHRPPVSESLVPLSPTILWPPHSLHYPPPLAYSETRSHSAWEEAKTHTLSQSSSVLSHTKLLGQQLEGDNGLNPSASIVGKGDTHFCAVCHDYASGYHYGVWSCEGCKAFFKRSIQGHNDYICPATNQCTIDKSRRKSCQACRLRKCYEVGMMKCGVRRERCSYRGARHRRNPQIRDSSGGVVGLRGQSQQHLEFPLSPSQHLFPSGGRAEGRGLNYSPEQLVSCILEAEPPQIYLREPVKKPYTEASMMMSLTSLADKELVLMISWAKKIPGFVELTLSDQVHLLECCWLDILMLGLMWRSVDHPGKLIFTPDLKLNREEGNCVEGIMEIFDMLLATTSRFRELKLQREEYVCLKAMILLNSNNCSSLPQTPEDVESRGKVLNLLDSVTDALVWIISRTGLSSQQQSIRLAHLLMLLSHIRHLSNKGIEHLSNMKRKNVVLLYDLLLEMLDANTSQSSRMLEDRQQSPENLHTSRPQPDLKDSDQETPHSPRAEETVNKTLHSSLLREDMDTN

zfERβ2 (Esr2a) = zfERβ2 (Esr2a) (Danio rerio, UniProt Q7ZU32)
zfERα (Esr1) = biological target: T2, zfERα (Esr1) (Danio rerio, UniProt P57717)
T2 sequence (P57717 1-569): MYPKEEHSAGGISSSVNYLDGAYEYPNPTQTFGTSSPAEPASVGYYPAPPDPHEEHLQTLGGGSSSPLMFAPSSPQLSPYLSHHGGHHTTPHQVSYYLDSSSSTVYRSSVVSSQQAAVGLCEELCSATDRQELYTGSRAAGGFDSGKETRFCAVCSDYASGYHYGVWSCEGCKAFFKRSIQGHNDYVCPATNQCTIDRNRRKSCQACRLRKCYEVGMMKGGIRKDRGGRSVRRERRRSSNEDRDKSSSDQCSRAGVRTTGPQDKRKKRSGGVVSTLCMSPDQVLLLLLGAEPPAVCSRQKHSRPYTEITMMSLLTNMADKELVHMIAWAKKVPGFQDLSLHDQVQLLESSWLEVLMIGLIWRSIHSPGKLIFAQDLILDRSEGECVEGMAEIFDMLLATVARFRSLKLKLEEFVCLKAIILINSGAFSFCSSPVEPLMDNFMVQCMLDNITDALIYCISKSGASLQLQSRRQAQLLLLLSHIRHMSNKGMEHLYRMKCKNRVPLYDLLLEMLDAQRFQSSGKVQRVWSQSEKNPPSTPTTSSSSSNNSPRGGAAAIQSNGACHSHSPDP

Chain of zfERβ2 (Esr2a) (Q7ZU32 1-553): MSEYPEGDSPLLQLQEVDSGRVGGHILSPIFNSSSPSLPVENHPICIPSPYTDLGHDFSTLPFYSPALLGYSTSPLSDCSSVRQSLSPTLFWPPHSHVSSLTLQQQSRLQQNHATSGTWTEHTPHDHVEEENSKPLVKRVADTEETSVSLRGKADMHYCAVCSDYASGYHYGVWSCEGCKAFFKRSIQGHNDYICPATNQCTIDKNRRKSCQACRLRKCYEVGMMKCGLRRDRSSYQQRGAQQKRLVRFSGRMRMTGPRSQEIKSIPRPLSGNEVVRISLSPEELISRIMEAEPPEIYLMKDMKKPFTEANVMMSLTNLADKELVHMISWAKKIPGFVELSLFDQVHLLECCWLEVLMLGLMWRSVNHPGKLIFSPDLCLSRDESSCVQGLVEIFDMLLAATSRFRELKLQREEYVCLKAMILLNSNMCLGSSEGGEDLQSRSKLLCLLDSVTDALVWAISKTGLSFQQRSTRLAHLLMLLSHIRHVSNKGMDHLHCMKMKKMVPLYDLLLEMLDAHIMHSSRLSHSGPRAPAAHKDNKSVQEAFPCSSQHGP

EC50 (zfERβ1 (Esr2b)) [nM]	EC50 (zfERβ2 (Esr2a)) [nM]	EC50 (zfERα (Esr1)) [nM]	SMILES	EC50 (zfERβ1 (Esr2b); read-out: zfERβ1, agonist mode, 16 h, 28°C) [nM]	EC50 (zfERβ2 (Esr2a); read-out: zfERβ2, agonist mode, 16 h, 28°C) [nM]	EC50 (zfERα (Esr1); read-out: zfERα, agonist mode, 16 h, 28°C) [nM]
271 ± 45	69.5 ± 17.5	0.65 ± 0.1	C[C@]12CC[C@@H]3c4ccc(O)cc4CC[C@H]3[C@@H]1C[C@H]1OC(=O)C[C@]12O [16α-LE2, 3,17-Dihydroxy-19-nor-17α-pregna-1,3,5(10)-triene-21,16α-lactone]	–	–	–
–	–	–	Oc1ccc(C(c2ccc(O)cc2)(C(F)(F)F)C(F)(F)F)cc1 [BPAF]	758 ± 131	897 ± 268	84 ± 27
3330 ± 381	2800 ± 562	469 ± 42	CC(C)(c1ccc(O)cc1)c1ccc(O)cc1 [BPA]	–	–	–
